ChEMBL document CHEMBL1821714, “Discovery, synthesis and SAR of azinyl- and azolylbenzamides antagonists of the P2X₇ receptor” (Bioorg Med Chem Lett, 2011)

Legend:
P2X purinoceptor 7 [1] = molecular target: T1, P2X purinoceptor 7 (Homo sapiens, UniProt Q99572); assay: Antagonist activity at P2X7R expressed in HEK293 cells assessed as inhibition of ATP-induced YO-PRO-1 uptake; assay type: functional, cell-based
T1 sequence (Q99572 whole entry): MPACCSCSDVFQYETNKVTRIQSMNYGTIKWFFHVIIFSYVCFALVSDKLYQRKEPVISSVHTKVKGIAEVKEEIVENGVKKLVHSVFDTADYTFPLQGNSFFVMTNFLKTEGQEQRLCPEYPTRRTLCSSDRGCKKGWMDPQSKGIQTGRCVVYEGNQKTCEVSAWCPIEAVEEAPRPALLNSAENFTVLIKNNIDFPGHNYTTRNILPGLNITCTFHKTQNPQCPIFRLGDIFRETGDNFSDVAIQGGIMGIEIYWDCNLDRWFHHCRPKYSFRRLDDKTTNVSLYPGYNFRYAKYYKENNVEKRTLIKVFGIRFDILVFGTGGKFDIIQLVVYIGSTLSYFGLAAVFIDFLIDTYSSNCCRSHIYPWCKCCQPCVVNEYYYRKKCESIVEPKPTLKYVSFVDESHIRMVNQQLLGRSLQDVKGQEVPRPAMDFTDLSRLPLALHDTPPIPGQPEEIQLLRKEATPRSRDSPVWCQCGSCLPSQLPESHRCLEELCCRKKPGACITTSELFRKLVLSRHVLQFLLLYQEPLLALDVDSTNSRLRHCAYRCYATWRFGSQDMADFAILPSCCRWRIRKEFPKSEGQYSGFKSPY

P2X purinoceptor 7 [2] = molecular target: T1, P2X purinoceptor 7; assay: Antagonist activity at P2X7R expressed in LPS-stimulated human whole blood assessed as inhibition of ATP-induced IL1-beta release; assay type: functional, tissue-based
[3] = Half life in human liver microsomes
P2X purinoceptor 7 [4] = molecular target: T1, P2X purinoceptor 7; assay: Antagonist activity at P2X7R expressed in LPS-activated human monocytes assessed as inhibition of ATP-induced IL1-beta release in presence of low serum concentration; assay type: functional, cell-based
[5] = molecular target: T2, P2X purinoceptor 7 (Homo sapiens) (UniProt Q99572); assay: Antagonist activity at P2X7R expressed in LPS-activated human monocytes assessed as inhibition of ATP-induced IL1-beta release at 1 uM in presence of low serum concentration; assay type: functional, cell-based
T2 sequence (whole entry): T1 sequence (Q99572 whole entry)

[6] = Permeability from apical to basolateral side of human Caco2 cells; assay type: ADME, cell-based; conditions: Caco-2, read-out: permeability
[7] = Lipophilicity, log P of the compound; assay type: physicochemical; conditions: octanol/water
MDCK [8] = assay: Permeability from basolateral to apical side of dog MDCK cells expressing MDR1; assay type: ADME, cell-based, Canis lupus familiaris
MDCK [9] = assay: Permeability from apical to basolateral side of dog MDCK cells expressing MDR1; assay type: ADME, cell-based, Canis lupus familiaris
[10] = Distribution coefficient, log D of the compound; assay type: physicochemical; conditions: octanol/water
MDCK [11] = assay: Ratio of permeability from basolateral to apical over apical to basolateral side in dog MDCK cells expressing MDR1; assay type: ADME, cell-based, Canis lupus familiaris
[12] = Oral bioavailability in rat; conditions: in vivo
[13] = Half life in iv dosed rat; conditions: in vivo
[14] = Volume of distribution at steady state in iv dosed rat; conditions: in vivo

## O=C(NCC1(O)CCCCCC1)c1cc(-c2cc[nH]n2)ccc1Cl
P2X purinoceptor 7 [1]
  IC50: 12 nM
P2X purinoceptor 7 [2]
  IC50: 610 nM
[3]; liver microsomes
  half-life: 12 min

## O=C(NCCc1ccccc1Cl)c1cc(-c2ccncc2)ccc1Cl
P2X purinoceptor 7 [4]
  IC50: 5200 nM

## O=C(NCC1(O)CCCCCC1)c1cc(-c2cnoc2)ccc1Cl
P2X purinoceptor 7 [4]
  IC50: 240 nM
[3]; microsomes
  half-life: 22.3 min

## Cc1ccc(-c2ccc(Cl)c(C(=O)NCCc3ccccc3Cl)c2)nc1
P2X purinoceptor 7 [4]
  IC50: 110 nM

## O=C(NCCc1ccccc1Cl)c1cc(-c2ccc(C(F)(F)F)cn2)ccc1Cl
P2X purinoceptor 7 [4]
  IC50: 4600 nM

## N#Cc1ccc(-c2ccc(Cl)c(C(=O)NCCc3ccccc3Cl)c2)nc1
[5]
  inhibition: 0%

## Cc1cccnc1-c1ccc(Cl)c(C(=O)NCCc2ccccc2Cl)c1
[5]
  inhibition: 0%

## NC(=O)c1ccc(-c2ccc(Cl)c(C(=O)NCCc3ccccc3Cl)c2)nc1
P2X purinoceptor 7 [4]
  IC50: 720 nM

## CC(=O)c1ccc(-c2ccc(Cl)c(C(=O)NCCc3ccccc3Cl)c2)nc1
[5]
  inhibition: 0%

## Cc1ccnc(-c2ccc(Cl)c(C(=O)NCCc3ccccc3Cl)c2)c1
[5]
  inhibition: 0%

## O=C(NCC1(O)CCCCCC1)c1cc(-c2c[nH]cn2)ccc1Cl
P2X purinoceptor 7 [4]
  IC50: 510 nM
[3]; liver microsomes
  half-life: 85 min

## O=C(NCCc1ccccc1Cl)c1cc(-c2cccnc2)ccc1Cl
P2X purinoceptor 7 [4]
  IC50: 4800 nM

## Cc1cc(-c2ccc(Cl)c(C(=O)NCC3(O)CCCCCC3)c2)nn1C[C@H](O)CN.Cl
[6]
  Papp A→B: 10.5 ×10⁻⁶ cm/s
P2X purinoceptor 7 [1]
  IC50: 3 nM
P2X purinoceptor 7 [4]
  IC50: 7 nM
[7]
  logP: 2.6
P2X purinoceptor 7 [2]
  IC50: 10 nM
MDCK [8]
  permeability: 2.2 ×10⁻⁶ cm/s
[3]; liver microsomes
  half-life: > 120 min
MDCK [9]
  permeability: 0.26 ×10⁻⁶ cm/s
[10]
  logD: 1.6
MDCK [11]
  Ratio: 10.5

## Cc1nc(-c2ccc(Cl)c(C(=O)NCC3(O)CCCCCC3)c2)cs1
P2X purinoceptor 7 [1]
  IC50: 6 nM

## Cc1ccc(-c2ccc(Cl)c(C(=O)NCCc3ccccc3Cl)c2)nn1
P2X purinoceptor 7 [4]
  IC50: 250 nM

## COc1ccc(-c2ccc(Cl)c(C(=O)NCC3(O)CCCCCC3)c2)nn1
P2X purinoceptor 7 [1]
  IC50: 28 nM
P2X purinoceptor 7 [2]
  IC50: 510 nM
[3]; liver microsomes
  half-life: 77 min

## O=C(NCC1(O)CCCCCC1)c1cc(-c2ccc(=O)[nH]n2)ccc1Cl
P2X purinoceptor 7 [1]
  IC50: 180 nM

## O=C(NCCc1ccccc1Cl)c1cc(-c2ccc(Cl)cn2)ccc1Cl
P2X purinoceptor 7 [4]
  IC50: 460 nM

## CC(O)c1ccc(-c2ccc(Cl)c(C(=O)NCCc3ccccc3Cl)c2)nc1 (stereo not drawn)
P2X purinoceptor 7 [4]
  IC50: 668 nM

## O=C(NCCc1ccccc1Cl)c1cc(-c2ccccn2)ccc1Cl
P2X purinoceptor 7 [4]
  IC50: 1600 nM

## Cn1nccc1-c1ccc(Cl)c(C(=O)NCC2(O)CCCCCC2)c1
P2X purinoceptor 7 [1]
  IC50: 266 nM
P2X purinoceptor 7 [4]
  IC50: > 1000 nM

## COC[C@H](O)Cn1c(=O)cnn(-c2ccc(Cl)c(C(=O)NCC3(O)CCCCCC3)c2)c1=O [CE-224535]
P2X purinoceptor 7 [4]
  IC50: 1.3 nM

## O=C(NCCc1ccccc1Cl)c1cc(-c2n[nH]c(=O)[nH]c2=O)ccc1Cl
P2X purinoceptor 7 [4]
  IC50: 1050 nM

## Cc1cc(-c2ccc(Cl)c(C(=O)NCC3(O)CCCCCC3)c2)nn1C[C@@H](O)CN.Cl
[6]
  Papp A→B: 2.98 ×10⁻⁶ cm/s
[12]
  bioavailability: 9%
[13]
  half-life: 502 min
[14]
  Vd: 11.7 L/kg
P2X purinoceptor 7 [1]
  IC50: 0.5 nM
P2X purinoceptor 7 [4]
  IC50: 2 nM
[7]
  logP: 2.6
P2X purinoceptor 7 [2]
  IC50: 3 nM
MDCK [8]
  permeability: 2.39 ×10⁻⁶ cm/s
[3]; liver microsomes
  half-life: > 120 min
MDCK [9]
  permeability: 0.26 ×10⁻⁶ cm/s
[10]
  logD: 1.6
MDCK [11]
  Ratio: 11.5

## Cc1cccc(-c2ccc(Cl)c(C(=O)NCCc3ccccc3Cl)c2)n1
[5]
  inhibition: 0%

## Cn1ccc(-c2ccc(Cl)c(C(=O)NCC3(O)CCCCCC3)c2)n1
P2X purinoceptor 7 [4]
  IC50: 238 nM
P2X purinoceptor 7 [2]
  IC50: 440 nM
[3]; liver microsomes
  half-life: 3.7 min

## COc1ccc(-c2ccc(Cl)c(C(=O)NCCc3ccccc3Cl)c2)nn1
P2X purinoceptor 7 [4]
  IC50: 490 nM

## CCCCC(CC)CNC(=O)c1cc(-n2ncc(=O)[nH]c2=O)ccc1Cl (stereo not drawn)
P2X purinoceptor 7 [4]
  IC50: 820 nM
